Structures can show the parent of a compound that is named as a salt. Where two headings read alike, the source gives them in different places.
Experiments:
[1] = test system: cholesterol biosynthesis in HepG2 cells; assay: Metabolic labeling of HepG2 cells with [3H]acetate; radio-HPLC sterol profile (inhibition of cholesterol biosynthesis); format: cell-based, human; conditions: for activity at 10 µM: Homo sapiens, 24 h, Table I, sterol level normalized to normal medium (1.00), mean of 4 experiments; for activity at 10 µM / FF-MAS / cholesterol / desmosterol / lanosterol / lathosterol / zymosterol+7-dehydrocholesterol: 10 μM compound; for activity at 10 µM / FF-MAS / cholesterol / desmosterol / lanosterol / lathosterol / zymosterol+7-dehydrocholesterol / all sterol levels (in words): HepG2; for FF-MAS / cholesterol / desmosterol / lanosterol / lathosterol / zymosterol+7-dehydrocholesterol: Table II (arranged by sterol profile), normalized to normal medium (1.00); for all sterol levels (in words): relative to normal medium (unity)
Description: In accordance with the aims of the invention, the effect of the novel compounds on inhibition of cholesterol biosynthesis is assessed. An ex vivo method of metabolic labeling of immortal human hepatocytes is employed. The radioactively labeled early precursor of cholesterol [3H]acetate is added to cells with or without addition of an active new compound.
An ex vivo method of metabolic labeling of immortal human hepatocytes is employed. The radioactively labeled early precursor of cholesterol [3H]acetate is added to cells with or without addition of an active compound.
Cell culture incubation with potential inhibitors of cholesterol biosynthesis and statins Human hepatoma cell line (HepG2-ATCC No. HB-8065) is split in the recommended ratio (1:2-3) into 75 cm^2 cell flasks using two flasks per experimental condition. Cells are incubated at 37° C. with 5% CO2 in Dulbeco's modified Eagle medium (DMEM high (Sigma)) containing 5% calf serum (Sigma) and 1% L-glutamine (Sigma). After 24-hours-culturing in the growth medium, the medium is replaced with the one supplemented with 10 μM concentration of a LK compound, potential inhibitor of cholesterol biosynthesis. 10 μM solution of atorvastatin, inhibitor of HMG-CoA reductase, serves as a positive control.
After 24 hours the growth medium is changed and [^3H]acetate (NEN™ Life Science Products) added in a concentration of 40 μCi per ml of the medium (400 μCi per flask). After 4 hours cells are harvested using 2 ml of trypsin (Sigma) and the cell pellet is resuspended in 1 ml of distilled water. Cells are homogenized using the freeze and thaw method. From cell homogenate sterols are extracted and protein concentration determined using the Bio-Rad reagent.
Homogenates are transferred into 4 ml glass vial and sterols are extracted in 3 ml of extraction solution (75% n-heptane: 25% isopropanol (vol./vol.)) with ergosterol as an internal standard. For better extraction 100 μl of 0.3M NaH2PO4 (pH=1.0) is added. Closed vials are vigorously shaken (1800 rpm) for 2 hours. After extraction procedure vials are centrifuged (2000 g, 10 min) and the organic phase is transferred to fresh conical glass tubes. Extraction procedure is repeated using 1 ml of extraction solution for 15 min. Organic phases are pooled. Primary extracts are dried in vacuum centrifuge, redissolved in 3 ml of n-heptane, and incubated for 10 min at room temperature with mild shaking. After centrifugation (10 min, 2000 g) extracts are transferred into fresh glass tubes and stored in dark and cold.
The organic phase is dried, reconstituted in mobile phase for reversed phase HPLC separation and loaded onto a-HPLC column, Prism-RPN, 5 μm, 250×4,6 mm running in 100% acetonitrile at 1.00 ml/min at 40° C. temperature. Scintillation liquid is added after UV detection at 30 ml/h, at room temperature, to evaluate tritium labeled sterols on a radio detector.
Sterols are determined by comparing the eluted peaks with runs of commercial standards of lanosterol, ergosterol, desmosterol, zymosterol, 7-dehydrocholesterol, lathosterol and cholesterol or laboratory standards (FF-MAS-4,4-Dimethylcholesta-8(9),14,24-triene-3β-ol- and T-MAS-4,4-Dimethylcholesta8(9),24,diene-3,6-ol, Laboratory of Reproductive Biology, The Juliane Marie Center for Children, Women and Reproduction, University Hospital of Copenhagen, DK-2100 Copenhagen, Denmark). Results were normalized on ergosterol quantity and protein concentration. Results are presented as a mean from 4 separated experiments.
The influence of a 10 μM solution of novel LK-substances on cholesterol biosynthesis in the assay on HepG2 cells is presented in Table I. Compounds are arranged according to the building blocks, three of them are 2-pyridineethanols, 2-pyridineethylpiperazines and pyridinemethylpiperazines.
Normal medium pertains to cell cultures without a compound of the invention. Its sterol levels were used for normalization. 10 μM solution of atorvastatin serves as a positive control.

[2] = read-out: zymosterol+7-dehydrocholesterol

SMILES | melting point [°C] | activity at 10 µM ([1]; read-out: FF-MAS) [%] | activity at 10 µM ([1]; read-out: cholesterol) [%] | activity at 10 µM ([1]; read-out: desmosterol) [%] | activity at 10 µM ([1]; read-out: lanosterol) [%] | activity at 10 µM ([1]; read-out: lathosterol) [%] | activity at 10 µM [1, 2] [%] | FF-MAS [1] | cholesterol [1] | desmosterol [1] | lanosterol [1] | lathosterol [1] | zymosterol+7-dehydrocholesterol [1] | all sterol levels (in words) ([1]; 10 μM) | de novo cholesterol biosynthesis (in words) ([1]; 10 μM, HepG2, radio-HPLC chromatograms)
OC(CN1CCN(CCc2ccccc2)CC1)c1cccnc1 (centres unmarked) (as salt: hydrobromid) [LK-980, 2-(4-Phenethylpiperazine-1-yl)-1-(pyridine3-yl)-1-ethanol trihydrobromide] | 178 to 181 |  |  |  |  |  |  |  |  |  |  |  |  |  | 
c1ccc(CCN2CCN(CCc3cccnc3)CC2)cc1 (as salt: hydrobromid) [LK-9100, 1-Phenethyl-4-(2-(pyridine-3-yl)ethyl)piperazine trihydrobromide] | 219 to 222 |  |  |  |  |  |  |  |  |  |  |  |  |  | 
COc1ccc(CN2CCN(CCc3ccccc3)CC2)cn1 (as salt: hydrobromid) [LK-9106, 1-((6-Methoxypyridin-3-yl)methyl)-4-phenethylpiperazine trihydrobromide] | 215 to 217 |  |  |  |  |  |  |  |  |  |  |  |  |  | 
FC(F)(F)c1ccc(CN2CCN(CCc3ccccc3)CC2)cn1 (as salt: hydrobromid) [LK-9107, 1-Phenethyl-4-((6(trifluoromethyl)pyridine-3-yl)methyl)piperazine trihydrobromide] | 225 to 228 |  |  |  |  |  |  |  |  |  |  |  |  |  | 
FC(F)(F)c1cnc(N2CCCN(CCc3ccccc3)CC2)c(Cl)c1 (as salt: hydrobromid) [LK-9115, 1-(3-Chloro-5-(trifluoromethyl)pyridine-2-yl)-4-phenethyl-1,4-diazepane trihydrobromide] | 175 to 177 |  |  |  |  |  |  |  |  |  |  |  |  |  | 
Clc1ccc(CCN2CCN(CCc3ccccn3)CC2)cc1Cl [LK-9137, 1-(3,4-Dichlorophenethyl)-4-(2-(pyridin-2-yl)ethyl)piperazine trihydrobromide] |  | 142 | 6 | 22 | 63 | 60 | 141 | 1.42 | 0.06 | 0.22 | 0.63 | 0.60 | 1.41 |  | 
Fc1ccc(CCN2CCN(CCc3ccccn3)CC2)cc1F [LK-9138, 1-(3,4-Difluorophenethyl)-4-(2-(pyridin-2-yl)ethyl)piperazine trihydrobromide] |  | 70 | 1 | 7 | 25 | 8 | 21 | 0.70 | 0.01 | 0.07 | 0.25 | 0.08 | 0.21 | reduce all sterol levels below unity | 
Cc1ccc(C(O)CN2CCN(CCc3ccccc3)CC2)cn1 (centres unmarked) [LK-9139, 2-(4-Phenethylpiperazine-1-yl)-1-(6-methylpyridin-3-yl)ethanol trihydrobromide] |  | 119 | 1 | 14 | 38 | 15 | 38 | 1.19 | 0.01 | 0.14 | 0.38 | 0.15 | 0.38 |  | 
c1ccc(CCN2CCN(CCCc3cccnc3)CC2)cc1 [LK-9140, 1-Phenethyl-4-(3-(pyridine-3-yl)propyl)piperazine trihydrobromide] |  | 72 | 0 | 1 | 24 | 3 | 15 | 0.72 | 0.00 | 0.01 | 0.24 | 0.03 | 0.15 | reduce all sterol levels below unity | 
OC(CN1CCN(c2ccc(F)cc2)CC1)c1cccnc1 (centres unmarked) [LK-9144, 2-(4-(4-Fluorophenyl)piperazine-1-yl)-1-(pyridine-3-yl)ethanol trihydrobromide] |  | 99 | 9 | 5 | 88 | 56 | 150 | 0.99 | 0.09 | 0.05 | 0.88 | 0.56 | 1.50 |  | 
OC(CN1CCN(Cc2ccc(F)cc2)CC1)c1cccnc1 (centres unmarked) [LK-9148, 2-(4-(4-Fluorobenzyl)piperazine-1-yl)-1-(pyridine-3-yl)ethanol trihydrobromide] |  | 125 | 14 | 38 | 80 | 65 | 144 | 1.25 | 0.14 | 0.38 | 0.80 | 0.65 | 1.44 |  | 
CC(C)c1c(C(=O)Nc2ccccc2)c(-c2ccccc2)c(-c2ccc(F)cc2)n1CC[C@@H](O)C[C@@H](O)CC(=O)O [atorvastatin, reference compound] |  | 0 | 0 | 0 | 0 | 0 | 0 | 0.00 | 0.00 | 0.00 | 0.00 | 0.00 | 0.00 |  | complete suppression of cholesterol biosynthesis as well as cholesterol precursors

Continued, in another order:

melting point [°C] | SMILES | activity at 10 µM ([1]; read-out: FF-MAS) [%] | activity at 10 µM ([1]; read-out: cholesterol) [%] | activity at 10 µM ([1]; read-out: desmosterol) [%] | activity at 10 µM ([1]; read-out: lanosterol) [%] | activity at 10 µM ([1]; read-out: lathosterol) [%] | activity at 10 µM [1, 2] [%] | FF-MAS [1] | cholesterol [1] | desmosterol [1] | lanosterol [1] | lathosterol [1] | zymosterol+7-dehydrocholesterol [1] | all sterol levels (in words) ([1]; 10 μM) | de novo cholesterol biosynthesis (in words) ([1]; 10 μM, HepG2, radio-HPLC chromatograms)
256 to 259 | Fc1ccc(CCN2CCN(CCc3ccncc3)CC2)cc1F (as salt: hydrobromid) [LK-9131, 1-(3,4-di-Fluorophenethyl)-4-(2-(pyridin-4-yl)ethyl)piperazine trihydrobromide] |  |  |  |  |  |  |  |  |  |  |  |  |  | 
253 to 255 | Clc1ccc(CCN2CCN(CCc3ccncc3)CC2)cc1Cl (as salt: hydrobromid) [LK-9135, 1-(3,4-Dichlorophenethyl)-4-(2-(pyridin-4-yl)ethyl)piperazine trihydrobromide] |  |  |  |  |  |  |  |  |  |  |  |  |  | 
207 to 209 | Clc1ccc(CCN2CCN(CCc3ccccn3)CC2)cc1Cl (as salt: hydrobromid) [LK-9137, 1-(3,4-Dichlorophenethyl)-4-(2-(pyridin-2-yl)ethyl)piperazine trihydrobromide] |  |  |  |  |  |  |  |  |  |  |  |  |  | 
212 to 213 | Fc1ccc(CCN2CCN(CCc3ccccn3)CC2)cc1F (as salt: hydrobromid) [LK-9138, 1-(3,4-Difluorophenethyl)-4-(2-(pyridin-2-yl)ethyl)piperazine trihydrobromide] |  |  |  |  |  |  |  |  |  |  |  |  |  | 
262 to 264 | c1ccc(CCN2CCN(CCCc3cccnc3)CC2)cc1 (as salt: hydrobromid) [LK-9140, 1-Phenethyl-4-(3-(pyridine-3-yl)propyl)piperazine trihydrobromide] |  |  |  |  |  |  |  |  |  |  |  |  |  | 
198 to 201 | OC(CN1CCN(c2ccc(F)cc2)CC1)c1cccnc1 (centres unmarked) (as salt: hydrobromid) [LK-9144, 2-(4-(4-Fluorophenyl)piperazine-1-yl)-1-(pyridine-3-yl)ethanol trihydrobromide] |  |  |  |  |  |  |  |  |  |  |  |  |  | 

From patent US20090018118A1, “HETEROCYCLIC COMPOUNDS” (priority 2005, published 2009)
